# Data as given in patent US20230210881A1, “NICOTINAMIDE MONONUCLEOTIDE DERIVATIVES FOR THE TREATMENT OF BACTERIAL INFECTIONS” (NUVAMID SA, priority 2020, published 2023).
# Columns and labels:
# [1] = tested on: caecal ligation and puncture (LPC) induced sepsis; test: Caecal ligation and puncture (LPC) induced sepsis model; format: in vivo, mice; conditions: for survival rate: compared with the control group; for Number of surviving mice: 185 mg/kg i.p. once daily; for bacterial load in the blood (bacterial DNA 16S by RT-PCR): 24 hours after LPC; for bacterial load in the blood (bacterial DNA 16S by RT-PCR) / clinical score (murine sepsis score): compared to the control group; for clinical score (murine sepsis score): after LPC at 24, 48, 72 and 96 hours; for temperature after LPC: rectal temperature, 24 hours after surgery
# Experimental: The purpose of this study is to evaluate the effect of administration of compounds according to the invention (I-A and I-B) on the survival rate of mice in a caecal ligation and puncture (LPC) induced sepsis model.
# The study consists of creating a sepsis model in mice by caecal ligation and puncture (LPC) and evaluating the impact of compounds I-A and I-B on the development of sepsis for 4 days.
# The test compounds are administered at 185 mg/kg, intraperitoneally, immediately after the LPC procedure, and then once daily at 24, 48, and 72 hours. The remaining mice are euthanized at 96 hours post-LPC. Vehicle (physiological buffer) is used as a control and administered under the same conditions.
# Mice are anesthetized with 3% Vetoflurane. A laparotomy is performed to exteriorize the caecum. For induction of medium grade sepsis, the caecum is ligated between the distal pole and the base of the caecum. A through puncture with a 21-gauge needle is performed. A small amount of excreta is extruded from the mesenteric and antimesenteric penetration holes to ensure patency. The caecum is repositioned over the abdominal cavity. The peritoneum, fascia, abdominal musculature and then the skin are closed by applying simple sutures. The animals are resuscitated by injecting pre-warmed normal saline (37° C.; 5 ml per 100 g body weight) subcutaneously.
# Administration of Compound I-A at 185 mg/kg, Compound I-B at 185 mg/kg and vehicle (physiological buffer) is performed intraperitoneally immediately after LPC surgery and then once daily at 24, 48 and 72 hours post LPC.
# Survival is assessed every 12 hours for the first two days, then once a day until euthanasia.
# Rectal temperature is checked every 2 to 4 hours for the first day, then twice for the second day.
# These two parameters are monitored once a day.
# The clinical score is defined according to the criteria defined in Table 3:
# 24 hours after surgery, mice were anesthetized with Vetoflurane and blood was collected from the retroorbital sinus to quantify the bacterial load. Bacterial DNA (16S) is extracted and quantified by RT-PCR.
# Escherichia coli = test: Non-lethal model of Escherichia coli induced pneumonia, bacterial culture in the spleen; format: in vivo, BALB/c mice; conditions: for bacteria in the spleen: pre-treatment 185 mg/kg
# Experimental: The purpose of this study is to evaluate the effect of pre-treatment, with an NAD precursor, on the spread of bacterial infection to the spleen in a mouse model of non-lethal Escherichia coli (E. coli) induced pneumonia.
# The administration of the compound at 185 mg/kg and the vehicle (physiological buffer) is performed intraperitoneally and/or intratracheally.
# The compound of formula I-A (white powder) is dissolved in the vehicle. The solution is used at room temperature for a maximum of 1 day and freshly prepared for each new experiment.
# Immediately before use, the E. coli culture was washed twice with 0.9% NaCl. After the second wash, the pellet was re-suspended in sterile saline and the dose calibrated by nephelometry.
# Female BALB/c mice (20-24 g) were then inoculated using intratracheal insertion of a gavage needle (24 G) for injection of 75 μL of the bacterial suspension.
# The compound of formula I-A and the vehicle are administered to the animals intraperitoneally and/or intratracheally. The injection of the compound of formula I-A is performed 24 hours prior to the infection with Escherichia coli. Simulated animals are given a physiological buffer by intraperitoneal administration.
# At 24 hours, 48 hours, and 72 hours postoperatively, spleens from sacrificed animals were weighed and homogenized in 1 mL of saline. These solutions were then used for quantitative agar gel cultures during 24 hours of incubation at 37° C. Viable bacterial colony counts are expressed as Log 10 CFU per gram of organ.
# [2] = tested on: Pseudomonas aeruginosa PAO1; test: Mouse model of respiratory tract infection induced by Pseudomonas aeruginosa PAO1, bacterial load; format: in vivo, mice; conditions: day 5 post infection, I-A 185 mg/kg i.p., ciprofloxacin 2 mg/kg i.p., once a day
# Experimental: The vehicle (physiological buffer) is used as a control and is administered under the same conditions.
# In each group, the bacterial load in the blood and lungs is assessed on day 5 post infection.
# Leukopenia is induced by intraperitoneal injections of cyclophosphamide 4 days and 1 day before infection, with doses of 150 mg/kg and 100 mg/kg, respectively. P. aeruginosa PAO1 was obtained from ATCC. One vial is thawed and diluted in sterile PBS on the day of infection.
# Bacterial load is assessed in blood and lungs on day 5. Quantitative cultures on agar gel are performed during 24 hours of incubation at 37° C. Viable bacterial colony counts are expressed as Log 10 CFU per mL of blood or per gram of organ.
SMILES,survival rate ([1]; 185 mg/kg i.p.),Number of surviving mice ([1]; 24 h after LPC),bacterial load in the blood (bacterial DNA 16S by RT-PCR) [1],Number of surviving mice ([1]; 48 h after LPC),Number of surviving mice ([1]; 72 h after LPC),Number of surviving mice ([1]; 96 h after LPC),clinical score (murine sepsis score) [1],"weight loss ([1]; after LPC over 24-96 hours, 185 mg/kg i.p.)",temperature after LPC ([1]; 185 mg/kg i.p.),"percentage of animals with bacteria in the spleen (Escherichia coli; after 24 hours, compared to the control group)","percentage of positive bacterial culture in the spleen (Escherichia coli; pre-treatment 185 mg/kg 24 hours prior to infection, intraperitoneal administration, compared to untreated mice (control))",bacteria in the spleen (Escherichia coli; 48 h after intraperitoneal administration),bacteria in the spleen (Escherichia coli; 72 h after intratracheal administration),"spread of bacteria from the lungs to the spleen (Escherichia coli; pre-treatment, intraperitoneal and/or intratracheal administration)",reduction of blood bacterial load compared to the vehicle group [2],pulmonary bacterial load ([2]; compared with the vehicle group)
NC(=O)c1ccc[n+]([C@H]2O[C@H](COP(=O)([O-])O)[C@@H](O)[C@H]2O)c1 [Compound I-B],improved,12/12,significantly decreased,9/12,8/12,6/12,very significantly improved,the weight loss is less,regain their basal temperature,,,,,,,
NC(=O)c1ccc[n+]([C@@H]2O[C@H](COP(=O)([O-])O)[C@@H](O)[C@H]2O)c1 [Compound I-A],improved,12/12,significantly decreased,11/12,10/12,9/12,very significantly improved,,regain their basal temperature,greatly reduced,reduced the percentage of positive cultures in the spleen,no bacteria were found in the spleen,no bacteria were found in the spleen,prevented the spread of bacteria from the lungs to the spleen,approximately 2 log,antibacterial effect
